Results as given in patent US20230339970A1, “CASEIN KINASE 1 DELTA MODULATORS” (priority 2020, published 2023).
pIC50: −log10 of the molar value.

Columns and labels:
[1] = target: T1, human recombinant GST cleaved CSNK1D (Homo sapiens, UniProt P48730); assay: Purified Enzyme Assay (ADP-Glo CSNK1D Kinase Assay); assay type: biochemical; details: 2 nM CSNK1D; peptide substrate 150 μM; ATP 20 μM; 45 minutes at room temperature
T1 construct: GST (cleaved yes); purchased University of Dundee clone DU 19064
Procedure, shortened: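 Percent activity derived from ADP-Glo quantification of ADP produced. Reactions: compound dose-response with human recombinant GST-cleaved CSNK1D, ATP and substrate peptide PLSRTL-pS-VASLPGL, incubated 45 min at room temperature.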

[2] = target: T2, human CSNK1D (Homo sapiens, UniProt P48730); assay: Whole Cell nBRET CSNK1D Binding Assay; details: living CHO cells stably expressing human CSNK1D tagged with nanoluciferase; NanoBret tracer 130 nM; 2 hours at 37 C
T2 construct: expressed in transfected cells
T2 sequence (P48730 whole entry): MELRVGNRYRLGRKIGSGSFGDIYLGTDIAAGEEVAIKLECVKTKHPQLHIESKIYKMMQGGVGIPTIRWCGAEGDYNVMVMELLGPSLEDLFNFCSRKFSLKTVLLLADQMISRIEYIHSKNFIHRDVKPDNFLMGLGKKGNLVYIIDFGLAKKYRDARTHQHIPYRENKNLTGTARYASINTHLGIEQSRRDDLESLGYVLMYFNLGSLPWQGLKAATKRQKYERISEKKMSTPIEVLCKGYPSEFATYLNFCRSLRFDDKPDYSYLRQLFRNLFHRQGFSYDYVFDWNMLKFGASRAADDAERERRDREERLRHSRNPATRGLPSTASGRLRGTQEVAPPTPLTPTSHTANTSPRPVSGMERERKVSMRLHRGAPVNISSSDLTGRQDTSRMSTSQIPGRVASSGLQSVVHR

T1 sequence (P48730 whole entry): as above

Compound: CC[C@@H]1Cn2nc(-c3ccc(F)cn3)c(-c3ccnc4[nH]ncc34)c2CO1 (single isomer, unassigned) [Example 95, (*R)-6-Ethyl-2-(5-fluoropyridin-2-yl)-3-(1H-pyrazolo[3,4-b]pyridin-4-yl)-6,7-dihydro-4H-pyrazolo[5,1-c][1,4]oxazine]
- pIC50 [1]: 7.72
- pIC50 [2]: 6.25

Compound: CC[C@H]1Cn2nc(-c3ccc(F)cn3)c(-c3ccnc4[nH]ncc34)c2CO1 (single isomer, unassigned) [Example 96, (*S)-6-Ethyl-2-(5-fluoropyridin-2-yl)-3-(1H-pyrazolo[3,4-b]pyridin-4-yl)-6,7-dihydro-4H-pyrazolo[5,1-c][1,4]oxazine]
- pIC50 [1]: 7.49
- pIC50 [2]: 5.56

Compound: CC(C)[C@@H]1Cn2nc(-c3ccc(F)cn3)c(-c3ccnc4[nH]ncc34)c2CO1 (single isomer, unassigned) [Example 97, (*R)-2-(5-Fluoropyridin-2-yl)-6-isopropyl-3-(1H-pyrazolo[3,4-b]pyridin-4-yl)-6,7-dihydro-4H-pyrazolo[5,1-c][1,4]oxazine]
- pIC50 [1]: 7.20
- pIC50 [2]: 5.30

Compound: CC(C)[C@H]1Cn2nc(-c3ccc(F)cn3)c(-c3ccnc4[nH]ncc34)c2CO1 (single isomer, unassigned) [Example 98, (*S)-2-(5-Fluoropyridin-2-yl)-6-isopropyl-3-(1H-pyrazolo[3,4-b]pyridin-4-yl)-6,7-dihydro-4H-pyrazolo[5,1-c][1,4]oxazine]
- pIC50 [1]: 7.51
- pIC50 [2]: 5.64

Compound: FCC1Cn2nc(-c3ccc(F)cc3)c(-c3ccnc4[nH]ncc34)c2CO1 (single isomer, unassigned) [Example 104, (*S)-6-(Fluoromethyl)-2-(4-fluorophenyl)-3-(1H-pyrazolo[3,4-b]pyridin-4-yl)-6,7-dihydro-4H-pyrazolo[5,1-c][1,4]oxazine]
- pIC50 [1]: 8.40
- pIC50 [2]: 7.31

Compound: FCC1Cn2nc(-c3ccc(F)cc3)c(-c3ccnc4[nH]ncc34)c2CO1 (single isomer, unassigned) [Example 105, (*R)-(Fluoromethyl)-2-(4-fluorophenyl)-3-(1H-pyrazolo[3,4-b]pyridin-4-yl)-6,7-dihydro-4H-pyrazolo[5,1-c][1,4]oxazine]
- pIC50 [1]: 8.40
- pIC50 [2]: 7.34

Compound: Fc1ccc(-c2nn3c(c2-c2ccnc4[nH]ncc24)CO[C@H](C2CC2)C3)nc1 (single isomer, unassigned) [Example 108, (*R)-6-Cyclopropyl-2-(5-fluoropyridin-2-yl)-3-(1H-pyrazolo[3,4-b]pyridin-4-yl)-6,7-dihydro-4H-pyrazolo[5,1-c][1,4]oxazine]
- pIC50 [1]: 7.39
- pIC50 [2]: 6.17

Compound: Fc1ccc(-c2nn3c(c2-c2ccnc4[nH]ncc24)CO[C@@H](C2CC2)C3)nc1 (single isomer, unassigned) [Example 109, (*S)-6-Cyclopropyl-2-(5-fluoropyridin-2-yl)-3-(1H-pyrazolo[3,4-b]pyridin-4-yl)-6,7-dihydro-4H-pyrazolo[5,1-c][1,4]oxazine]
- pIC50 [1]: 7.82
- pIC50 [2]: 6.52

Compound: Fc1ccc(-c2nn3c(c2-c2ccnc4[nH]ncc24)CO[C@H](C2CCC2)C3)nc1 (single isomer, unassigned) [Example 110, (*R)-6-Cyclobutyl-2-(5-fluoropyridin-2-yl)-3-(1H-pyrazolo[3,4-b]pyridin-4-yl)-6,7-dihydro-4H-pyrazolo[5,1-c][1,4]oxazine]
- pIC50 [1]: 7.31
- pIC50 [2]: 5.93

Compound: Fc1ccc(-c2nn3c(c2-c2ccnc4[nH]ncc24)CO[C@@H](C2CCC2)C3)nc1 (single isomer, unassigned) [Example 111, (*S)-6-Cyclobutyl-2-(5-fluoropyridin-2-yl)-3-(1H-pyrazolo[3,4-b]pyridin-4-yl)-6,7-dihydro-4H-pyrazolo[5,1-c][1,4]oxazine]
- pIC50 [1]: 7.44
- pIC50 [2]: 5.97

Compound: C[C@@H]1OCc2c(-c3ccnc4[nH]ncc34)c(-c3ccc(F)cc3)nn2[C@@H]1C (single isomer, unassigned) [Example 113, (6*S,7*R)-2-(4-Fluorophenyl)-6,7-dimethyl-3-(1H-pyrazolo[3,4-b]pyridin-4-yl)-6,7-dihydro-4H-pyrazolo[5,1-c][1,4]oxazine]
- pIC50 [1]: 8.00
- pIC50 [2]: 6.95

Compound: C[C@@H]1OCc2c(-c3ccnc4[nH]ncc34)c(-c3ccc(F)cc3)nn2[C@H]1C (single isomer, unassigned) [Example 115, (6*S,7*S)-2-(4-Fluorophenyl)-6,7-dimethyl-3-(1H-pyrazolo[3,4-b]pyridin-4-yl)-6,7-dihydro-4H-pyrazolo[5,1-c][1,4]oxazine]
- pIC50 [1]: 8.22
- pIC50 [2]: 7.13

Compound: C[C@H]1OCc2c(-c3ccnc4[nH]ncc34)c(-c3ccc(F)cn3)nn2[C@H]1C (single isomer, unassigned) [Example 116, (6*R,7*S)-2-(5-Fluoropyridin-2-yl)-6,7-dimethyl-3-(1H-pyrazolo[3,4-b]pyridin-4-yl)-6,7-dihydro-4H-pyrazolo[5,1-c][1,4]oxazine]
- pIC50 [1]: 7.42
- pIC50 [2]: 6.03

Compound: C[C@@H]1OCc2c(-c3ccnc4[nH]ncc34)c(-c3ccc(F)cn3)nn2[C@@H]1C (single isomer, unassigned) [Example 117, (6*S,7*R)-2-(5-Fluoropyridin-2-yl)-6,7-dimethyl-3-(1H-pyrazolo[3,4-b]pyridin-4-yl)-6,7-dihydro-4H-pyrazolo[5,1-c][1,4]oxazine]
- pIC50 [1]: 7.35
- pIC50 [2]: 6.03

Compound: CC[C@]1(C)Cn2nc(-c3ccc(F)cn3)c(-c3ccnc4[nH]ncc34)c2CO1 (single isomer, unassigned) [Example 169, (*R)-6-Ethyl-2-(5-fluoropyridin-2-yl)-6-methyl-3-(1H-pyrazolo[3,4-b]pyridin-4-yl)-6,7-dihydro-4H-pyrazolo[5,1-c][1,4]oxazine]
- pIC50 [1]: 8.40
- pIC50 [2]: 6.87

Compound: CC[C@@]1(C)Cn2nc(-c3ccc(F)cn3)c(-c3ccnc4[nH]ncc34)c2CO1 (single isomer, unassigned) [Example 170, *S-6-Ethyl-2-(5-fluoropyridin-2-(l)-6-methyl-3-(1H-pyrazolo[3,4-b]pyridin-4-yl)-6,7-dihydro-4H-pyrazolo[5,1-c][1,4]oxazine]
- pIC50 [1]: 8.70
- pIC50 [2]: 7.38

Compound: C[C@@H]1n2nc(-c3ccc(F)cc3)c(-c3ccnc4[nH]ncc34)c2COC1(C)C (single isomer, unassigned) [Example 171]
- pIC50 [1]: 9.00
- pIC50 [2]: 8.22

Compound: C[C@H]1n2nc(-c3ccc(F)cc3)c(-c3ccnc4[nH]ncc34)c2COC1(C)C (single isomer, unassigned) [Example 172]
- pIC50 [1]: 8.30
- pIC50 [2]: 7.27

Compound: C[C@H]1n2nc(-c3ccc(F)cn3)c(-c3ccnc4[nH]ncc34)c2COC1(C)C (single isomer, unassigned) [Example 173, (*R)-2-(5-Fluoropyridin-2-yl)-6,6,7-trimethyl-3-(1H-pyrazolo[3,4-b]pyridin-4-yl)-6,7-dihydro-4H-pyrazolo[5,1-c][1,4]oxazine]
- pIC50 [1]: 7.38
- pIC50 [2]: 6.08

Compound: CC1n2nc(-c3ccc(F)cn3)c(-c3ccnc4[nH]ncc34)c2COC1(C)C (single isomer, unassigned) [Example 174, (*S)-2-(5-Fluoropyridin-2-yl)-6,6,7-trimethyl-3-(1H-pyrazolo[3,4-b]pyridin-4-yl)-6,7-dihydro-4H-pyrazolo[5,1-c][1,4]oxazine]
- pIC50 [1]: 8.10
- pIC50 [2]: 6.94

Compound: C[C@@]1(C(F)(F)F)Cn2nc(-c3ccc(F)cn3)c(-c3ccnc4[nH]ncc34)c2CO1 (single isomer, unassigned) [Example 177, (*S)-2-(5-Fluoropyridin-2-yl)-6-methyl-3-(1H-pyrazolo[3,4-b]pyridin-4-yl)-6-(trifluoromethyl)-6,7-dihydro-4H-pyrazolo[5,1-c][1,4]oxazine]
- pIC50 [1]: 8.52
- pIC50 [2]: 7.36

Compound: C[C@]1(C(F)(F)F)Cn2nc(-c3ccc(F)cn3)c(-c3ccnc4[nH]ncc34)c2CO1 (single isomer, unassigned) [Example 178, (*R)-2-(5-Fluoropyridin-2-yl)-6-methyl-3-(1H-pyrazolo[3,4-b]pyridin-4-yl)-6-(trifluoromethyl)-6,7-dihydro-4H-pyrazolo[5,1-c][1,4]oxazine]
- pIC50 [1]: 7.11
- pIC50 [2]: 6.00

Compound: Cc1cc(-c2c(-c3ccc(F)cn3)nn3c2CO[C@](C)(C(F)(F)F)C3)c2cn[nH]c2n1 (single isomer, unassigned) [Example 179, (*S)-2-(5-Fluoropyridin-2-yl)-6-methyl-3-(6-methyl-1H-pyrazolo[3,4-b]pyridin-4-yl)-6-(trifluoromethyl)-6,7-dihydro-4H-pyrazolo[5,1-c][1,4]oxazine]
- pIC50 [1]: 8.52
- pIC50 [2]: 7.82

Compound: Cc1cc(-c2c(-c3ccc(F)cn3)nn3c2CO[C@@](C)(C(F)(F)F)C3)c2cn[nH]c2n1 (single isomer, unassigned) [Example 180, (*R)-2-(5-Fluoropyridin-2-yl)-6-methyl-3-(6-methyl-1H-pyrazolo[3,4-b]pyridin-4-yl)-6-(trifluoromethyl)-6,7-dihydro-4H-pyrazolo[5,1-c][1,4]oxazine]
- pIC50 [1]: 7.27
- pIC50 [2]: 6.60

Compound: Cc1cc(-c2c(-c3ccc(F)cc3)nn3c2OC[C@@H](C)C3)c2cn[nH]c2n1 (single isomer, unassigned) [Example 193, (*S)-2-(4-Fluorophenyl)-6-methyl-3-(6-methyl-1H-pyrazolo[3,4-b]pyridin-4-yl)-6,7-dihydro-5H-pyrazolo[5,1-b][1,3]oxazine]
- pIC50 [1]: > 9.30
- pIC50 [2]: 8.30

Compound: Cc1cc(-c2c(-c3ccc(F)cc3)nn3c2OC[C@H](C)C3)c2cn[nH]c2n1 (single isomer, unassigned) [Example 194, (*R)-2-(4-Fluorophenyl)-6-methyl-3-(6-methyl-1H-pyrazolo[3,4-b]pyridin-4-yl)-6,7-dihydro-5H-pyrazolo[5,1-b][1,3]oxazine]
- pIC50 [1]: 9.00
- pIC50 [2]: 7.96
